From PubChem BioAssay (NCI) come the findings set out here.

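In this assay, cells in 96-well plates receive the compound at five concentrations for 48 hours. Endpoints are linearly interpolated between the surrounding concentrations. TGI is the concentration that stops growth completely.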

Usually TGI stands for the concentration giving total growth inhibition. The low end stands for more potent growth arrest, the high end for less potent growth arrest.

Holding throughout (test): DTP human tumour cell line panel, 48 h
The test system of assay [1] is A498 renal.
For assay [2], the system named is ACHN renal.
Assay [3] has as its system EKVX NSCLC.
For assay [4], the system named is HCC-2998 colon.
The test system of assay [5] is HOP-62 NSCLC.
The subject of assay [6] is HOP-92 NSCLC.
The subject of assay [7] is HT29 colon.
Assay [8] concerns K-562 leukemia.
Assay [9] relates to MALME-3M melanoma.
Assay [10] deals with SK-MEL-2 melanoma.
In assay [11] the test system is SK-MEL-28 melanoma.
The subject of assay [12] is SK-OV-3 ovarian.
For assay [13], the system named is SN12C renal.
Assay [14] deals with SNB-19 CNS.
The subject of assay [15] is U251 CNS.
In assay [16] the test system is UACC-257 melanoma.
The test system of assay [17] is HL-60(TB) leukemia.

Turning to `O=C(Nc1ccccc1-c1nc2ccccc2[nH]c1=O)c1ccccc1`, the TGI came to 51.3 µM in assay [1]; 45 µM in [2]; 70.3 µM in assay [3]; 33.7 µM in assay [4]; 35.9 µM in assay [5]; 51.4 µM in assay [6]. The TGI in assay [7] was > 100 µM; in assay [8], > 100 µM; in [9], 92.7 µM; in [10] it was 56 µM; in [11], > 100 µM; in assay [12], 40.5 µM. Further, the TGI was 69.1 µM in assay [13], 60.1 µM in assay [14], 49.6 µM in [15] and > 100 µM in assay [16].
`Cc1cc(N(CCC#N)CCC#N)ccc1/C=C(\NC(=O)/C=C/c1ccccc1)C(N)=O`: the concentration for total growth inhibition (TGI) in assay [1], in assay [2], in assay [3], in assay [4], in [17] and in assay [5] was > 100 µM in each case. Also, the TGI in assay [7], in assay [8], in [9], in [10], in assay [11] and in assay [12] was > 100 µM in each case. For the same compound, the concentration for total growth inhibition (TGI) in assay [13], in assay [14], in assay [15] and in [16] was > 100 µM in each case.
For `Cn1cc(C2(C)CC(C)(C)c3c2n(C)c2ccccc32)c2ccccc21` (configuration not stated), the TGI in assay [1], in [3], in assay [4], in assay [5], in assay [6] and in [7] was > 100 µM throughout. In addition, the TGI in assay [8], in assay [9], in assay [10], in assay [11], in assay [12] and in [13] was > 100 µM in each case. The concentration for total growth inhibition (TGI) in [14], in assay [15] and in assay [16] was > 100 µM in each case.
Regarding `CC1=CCC(O)C=CC(C)C(O)C(C)C=C(C)C(=O)c2c(O)c(C)cc3c2C(=O)C(N)=C(NC(=O)/C=C\C=C/C=CC(C)C(O)CC1=O)C3=O` (configuration not stated), the total growth inhibition concentration (TGI) was > 100 µM in assay [1]; > 100 µM in assay [2]; > 100 µM in [3]; > 100 µM in assay [4]; 38.6 µM in assay [17]; > 100 µM in assay [5]. The concentration for total growth inhibition (TGI) in assay [6] was > 100 µM; in [7] it was > 100 µM; in assay [8], > 100 µM; in [9], 82.7 µM; in [10] it was > 100 µM; in assay [11], > 100 µM. Besides, the concentration for total growth inhibition (TGI) in assay [12], in [13], in assay [14], in [15] and in assay [16] was > 100 µM each time.
Regarding `CCN(CC)C1CC(O[C@H]2C[C@](O)(C(=O)CO)Cc3c(O)c4c(c(O)c32)C(=O)c2c(OC)cccc2C4=O)OC(C)C1O` (some centres not stated), the concentration for total growth inhibition (TGI) amounted to 0.0798 µM in assay [1]; 0.208 µM in [2]; 0.336 µM in assay [3]; 0.29 µM in assay [4]; 0.533 µM in assay [17]; 0.455 µM in assay [5]. In addition, the TGI in assay [6] is 0.268 µM; in assay [7] it was 1.64 µM; in assay [8] it was 0.947 µM; in [9], 0.166 µM; in [10], 0.193 µM; in assay [11], 0.216 µM. In addition, the total growth inhibition concentration (TGI) in assay [12] came to 9.62 µM; in [13] it was 1.25 µM; in assay [14], 0.754 µM; in assay [15] it was 1.19 µM; in assay [16], 0.305 µM.
Regarding `O=C(Nc1cc(Cl)c(Cl)cc1Cl)C(=O)C1C(=O)NC(=S)NC1=O`, the total growth inhibition concentration (TGI) in assay [1], in assay [2], in assay [3], in assay [4], in [17] and in assay [5] was > 100 µM throughout. Also, the TGI in assay [6], in assay [7], in [8], in assay [9], in assay [10] and in assay [11] was > 100 µM in each case. In addition, the TGI in assay [12], in assay [13], in assay [14], in assay [15] and in assay [16] was > 100 µM in each case.
Regarding `O=c1cc(-c2ccc(Oc3ccccc3)cc2)[nH]c2cc3c(cc12)OCO3`, the total growth inhibition concentration (TGI) in assay [1], in assay [2], in assay [3], in assay [4], in [17] and in assay [5] was > 100 µM in each case. Further, the total growth inhibition concentration (TGI) in assay [7], in [8], in assay [9], in assay [10], in [11] and in assay [13] was > 100 µM each time. The TGI in assay [14], in assay [15] and in assay [16] was > 100 µM in each case.
For the compound `COC(=O)CC1N=C(NC#N)N(CCc2c[nH]c3ccccc23)C1=O` (configuration not stated), the TGI in assay [2], in [3], in assay [4], in [17], in assay [5] and in [7] was > 100 µM each time. In addition, the concentration for total growth inhibition (TGI) in [8], in [11], in [12], in [13], in assay [14] and in assay [15] was > 100 µM in each case. For the same compound, the TGI in assay [16] was > 100 µM.
On to `CC(=O)O[C@H]1C(=O)[C@@]2(C)C(C(OC(=O)c3ccccc3)[C@]3(O)CC(OC(=O)C(O)C(NC(=O)c4ccc(C(F)(F)F)cc4)c4ccccc4)C(C)=C1C3(C)C)[C@]1(OC(C)=O)CO[C@@H]1C[C@@H]2O` (some centres not stated), for which the total growth inhibition concentration (TGI) is > 37.5 µM in assay [1]; > 37.5 µM in assay [2]; 0.387 µM in assay [4]; > 37.5 µM in [17]; 0.506 µM in assay [5]; > 37.5 µM in assay [6]. Besides, the TGI in assay [7] came to 0.237 µM; in assay [8] it was 14.8 µM; in assay [9], 13.7 µM; in assay [10], 0.284 µM; in [11], 17.8 µM; in [12], 0.946 µM. The TGI in [13] is 11.6 µM; in assay [14] it was > 37.5 µM; in assay [15], 2.43 µM; in [16] it was > 37.5 µM.
In the case of `CCOC(=O)CC(C)C1(C(=O)OCC)CCCCC1=O` (configuration not stated), the TGI in assay [1], in [2], in assay [3], in assay [4], in assay [17] and in assay [5] was > 100 µM in each case. The TGI in assay [7], in [8], in [9], in assay [10], in [11] and in assay [12] was > 100 µM throughout. In addition, the TGI in assay [13], in assay [14], in [15] and in assay [16] was > 100 µM throughout.
With `O=Cc1ccccc1COC(=O)c1cc(C(=O)OCc2ccccc2C=O)c(C(=O)OCc2ccccc2C=O)cc1C(=O)OCc1ccccc1C=O`, the TGI in [1], in assay [2], in assay [3], in [4], in assay [17] and in [6] was > 100 µM throughout. Also, the concentration for total growth inhibition (TGI) in [7], in assay [8], in [9], in assay [10], in assay [11] and in [12] was > 100 µM in each case. For the same compound, the total growth inhibition concentration (TGI) in assay [13], in [14], in [15] and in assay [16] was > 100 µM throughout.
Turning to `CCOC(=O)CCC(=O)C1c2cccc(O)c2C(=O)c2c(O)cc(C)cc21` (configuration not stated), the TGI turned out to be 4.75 µM in [1]; 2.41 µM in assay [2]; 3.91 µM in assay [3]; 2.09 µM in assay [4]; 1.8 µM in assay [17]; 2.21 µM in assay [5]. In addition, the TGI in assay [6] is 3.04 µM; in assay [7] it was 7.17 µM; in [8] it was 10.9 µM; in assay [9] it was 2.65 µM; in assay [10] it was 1.08 µM; in assay [11] it was 2.92 µM. For the same compound, the concentration for total growth inhibition (TGI) in assay [12] is 2.01 µM; in assay [13] it was 3.75 µM; in assay [14], 3.74 µM; in assay [15], 0.65 µM; in assay [16], 2.8 µM.
Take `O=C1C2C3C=C4c5ccccc5N(c5ccccc5)C4(C2C(=O)N1c1ccc([N+](=O)[O-])cc1)[C@H]1C(=O)N(c2ccc([N+](=O)[O-])cc2)C(=O)[C@@H]31` (some centres not stated): the TGI in [1], in assay [2], in [3], in assay [4], in assay [17] and in assay [5] was > 100 µM each time. Further, the concentration for total growth inhibition (TGI) in [6], in [7], in assay [8], in [9], in assay [10] and in assay [11] was > 100 µM throughout. Also, the concentration for total growth inhibition (TGI) in assay [12], in assay [13], in assay [14], in assay [15] and in [16] was > 100 µM throughout.
Turning to `Cn1c(O)c(C(=O)NC2CCCCC2)c(=O)n(C)c1=S`, the TGI in assay [1] turned out to be 13 µM; in assay [2] it was 13.7 µM; in assay [5], 16.8 µM; in [6], 8.48 µM; in [10], 15 µM; in assay [11], 16.8 µM. For the same compound, the total growth inhibition concentration (TGI) came to 23.8 µM in [12]; 59.9 µM in assay [13]; 71.2 µM in assay [14]; 26.7 µM in assay [15]; 28.5 µM in [16].
For `COC(=O)C(Cc1nc2ccccc2[nH]c1=O)C(NO)C(=O)Nc1c(Cl)cc([N+](=O)[O-])cc1Cl` (configuration not stated), the TGI is 46.5 µM in assay [1]; > 100 µM in [2]; > 100 µM in assay [3]; > 100 µM in assay [4]; > 100 µM in [5]; 25.7 µM in assay [6]. For the same compound, the TGI was > 100 µM in assay [7]; > 100 µM in [8]; > 100 µM in assay [9]; 82.2 µM in assay [10]; > 100 µM in [11]; > 100 µM in [12]. The TGI in assay [13] is > 100 µM; in assay [14], > 100 µM; in assay [15], 99 µM; in assay [16], > 100 µM.
As for `O=C(CC(=O)n1nc(-c2ccccc2)c(N=Nc2ccc(Cl)cc2)c1-c1ccccc1)Nc1ccc(Cl)cc1`, the concentration for total growth inhibition (TGI) in assay [1], in [2], in assay [3], in [4], in assay [17] and in [5] was > 100 µM each time. Also, the TGI in [6] was > 100 µM; in [7] it was > 59.7 µM; in assay [8], > 66.2 µM; in assay [9], > 100 µM; in assay [10], > 100 µM; in assay [11], > 100 µM. Further, the total growth inhibition concentration (TGI) in assay [12], in assay [13], in assay [14], in [15] and in assay [16] was > 100 µM each time.
